Results as given in patent US5262426A, “N,N'-cycloalkyl/alkyl carboxamide 4H-imidazo-[4,5-b]pyridine compounds as PAF antagonists” (G. D. Searle & Co., priority 1993, dated 1993).

Tests used:
thromboxane synthetase = settings: cited from earlier work
[1] = test system: arachidonic acid-induced platelet aggregation; settings: cited from earlier work
bronchoconstriction = settings: cited from earlier work
[2] = target: T1, PAF receptor (human platelet membrane preparation) (Homo sapiens, UniProt P25105); experiment: Assay A: Human Platelet Receptor Binding ([3H]PAF); settings: for IC50: 0.75 nM [3H]PAF, 30 minutes at 24° C
T1 construct: human platelet membrane preparation; tissue Lifesource, Inc. (Glenview, Ill.); host or cells: human packed platelets (washed, freeze-thaw broken, membrane pellet)
Description: Assay A: Human Platelet Receptor Binding
Compounds of the invention were evaluated for their ability to inhibit specific binding of [^3 H]PAF to human platelet membrane preparation. Human packed platelets were obtained from Lifesource, Inc. (Glenview, Ill.) and washed 3 times with 10 mM Trizma pH 7.0, 2 mM EDTA (dipotassium salt), 150 mM KCl and then once with 10 mM Trizma 7.4, 20 mM CaCl2. The platelets were broken by freezing in a dry ice-ethanol bath, followed by thawing in 24° C. water baths. The preparation was centrifuged (40,000 x g, 20 minutes, 4'C) and the pellet resuspended in 10 mM Trizma 7.4, 20 mM CaCl2, 5 mg/ml human albumin. Protein concentration in the platelet membrane preparation was determined by the Lowry method [0. H. Lowry et al, J. Biol. Chem., 193 265-275 (1951)]. Aliquots of the membrane preparation were stored at -70° C. Each preparation was characterized for PAF receptor number and dissociation constant (Kd). In binding assays 5 μl of test compound, solubilzed in DMSO, was added to polypropylene tubes along with 0.75 nM [^3 H]PAF and 200 mcl [0.075 nM] of membranes and 95 μl 10 mM Trizma 7.4, 20 mM CaCL2, 5 mg/ml human albumin. Tubes were incubated for 30 minutes at 24° C. The incubation was terminated by adding 4 ml of ice-cold 10 mM Trizma pH 7.4, 20 mM CaCl2 and 20 mg/ml BSA prior to vacuum filtration using Whatman GF/C filters. Filters were prepared and counted for a scintillation counter. All DPM values were corrected for background and isotope decay. Triplicate determinations for single doses were averaged. The amount of non-specific binding was subtracted from all dose averages, giving an amount of specific binding in all cases. The IC50 values for compounds of the invention determined by the Allfit program using percent displacement data. Allfit is a "basic" computer program for simultaneous curve fitting of a family of sigmoidal dose-response curves using the four parameter logistic equation.

human platelets = experiment: Assay B: Human Platelet Aggregation Inhibition (PAF-induced, platelet-rich plasma); assay type: cell-based; settings: 37°
Description: Assay B: Human Platelet Aggregation Inhibition
A compound of the invention was evaluated for ability to inhibit PAF-induced aggregation of human platelets in a human-platelet-rich plasma. Venous blood was collected from donors who fasted for 8 hours and were instructed not to use antiinflammatory drugs for 2 weeks prior to blood draw. Blood was collected into syringes containing 0.1 ml of 3.8% [w/v] citrate and centrifuged in polypropylene tubes at 150xg for 20 minutes at room temperature. The platelet rich plasma [PRP] was collected and let sit for 20 minutes at room temperature. Platelet activating factor [PAF] was diluted in 0.9% NaCl with 0.25% bovine serum albumin. Silicon treated cuvettes with stir bars were placed in the 37° heating block of the platelet aggregometer [Bio/Data Corporation, Platelet Aggregation Profiler, Model PAP-4]. PRP and test compound were added to cuvettes and aggregation monitored for 10-15 seconds at 37° with stirring. PAF was added and aggregation monitored for an additional 3 minutes. Peak aggregation was considered the peak of the first aggregation wave usually 45-60 seconds after PAF addition. Inhibition of aggregation was determined by the following: 1- [(% aggregation in the presence of compound).div.(% maximal aggregation)]. A log/logit transformation was used to determine half maximal inhibitory concentration of a test compound [IC50 ].

PAF-induced aggregation = settings: human platelet-rich plasma; cited from earlier work

T1 sequence (P25105 whole entry): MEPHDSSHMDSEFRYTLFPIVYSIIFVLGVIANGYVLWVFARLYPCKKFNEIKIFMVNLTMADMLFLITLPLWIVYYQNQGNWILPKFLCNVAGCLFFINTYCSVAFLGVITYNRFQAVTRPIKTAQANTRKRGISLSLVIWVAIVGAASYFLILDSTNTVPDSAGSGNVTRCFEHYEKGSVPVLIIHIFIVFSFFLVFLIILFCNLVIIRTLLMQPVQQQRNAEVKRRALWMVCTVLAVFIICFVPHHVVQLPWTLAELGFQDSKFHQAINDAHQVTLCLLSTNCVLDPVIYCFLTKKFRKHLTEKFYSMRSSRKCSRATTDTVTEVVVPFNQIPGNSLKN

Row | Structure (SMILES) | IC50 [2] [nM] | further results
1 | C(=Cc1ccccc1)Cn1ccnc1 [1-(3-phenyl-2-propenyl)1H-imidazole] |  | inhibiting thromboxane synthetase (thromboxane synthetase): effective in inhibiting; inhibiting arachidonic acid-induced platelet aggregation [1]: effective in inhibiting; inhibiting bronchoconstriction (bronchoconstriction): effective in inhibiting
2 | COc1cc(C(=O)N(C2CCCC2)C2CCCC2)ccc1Cn1cccc2ncnc1-2 [Example 1, N,N-dicyclopentyl-4-[(4H-imidazo[4,5-b]pyridin-4-yl)methyl]-3-methoxybenzamide] | 1050 | 
3 | COc1cc(Cn2cccc3ncnc2-3)ccc1C(=O)N(C(C)C)C1CCCCC1 [Example 2, N-cyclohexyl-4-[(4H-imidazo[4,5-b]pyridin-4-yl)methyl]-2-methoxy-N-(1-methylethyl)benzamide] |  | inhibition at 10 µM ([2]; at 10 μM): 40%
4 | COc1cc(C(=O)N(C(C)C)C2CCCCC2)ccc1Cn1cccc2nc(-c3ccccn3)nc1-2 [Example 7, N-cyclohexyl-3-methoxy-N-(1-methylethyl)-4-[[2-(2-pyridinyl)-4H-imidazo[4,5-b]pyridin-4-yl]methyl]benzamide] | 732 | 
5 | CC(C)N(C(=O)c1ccc(Cn2cccc3ncnc2-3)cc1)C1CCCCC1 [Example 9, N-cyclohexyl-4-[(4H-imidazo[4,5-b]pyridin-4 yl)methyl]-N-(1-methylethyl)benzamide] | 854 | 
6 | CN(C(=O)c1ccc(Cn2cnc3cnccc32)cc1)C1CCCCC1 [N-cyclohexyl-N-methyl-4-(1H-imidazo[4,5-c]pyridin-1-yl-methyl)benzamide] |  | inhibition of PAF-induced aggregation (PAF-induced aggregation): inhibitor of PAF-induced aggregation

Continued by falling IC50 [2], values first:

Row | IC50 [2] [nM] | Structure (SMILES) | further results
7 | 643 | COc1cc(C(=O)N(C(C)C)C2CCCCC2)ccc1Cn1cccc2ncnc1-2 [Example 3, N-cyclohexyl-4-[(4H-imidazo[4,5-b]pyridin-4-yl)methyl]-3-methoxy-N-(1-methylethyl)benzamide] | 
8 | 460 | COc1cc(C(=O)N(C(C)C)C2CCCCC2)ccc1Cn1cccc2nc(CO)nc1-2 [Example 6, N-cyclohexyl-4-[[2-(hydroxymethyl)-4H-imidazo[4,5-b]pyridin-4-yl]methyl]-3 methoxy-N-(1-methylethyl)benzamide] | 
9 | 323 | COc1cc(C(=O)N(C(C)C)C2CCCCC2)ccc1Cn1cccc2nc(C)nc1-2 [Example 5, N-cyclohexyl-3-methoxy-N-(1-methylethyl)-4-[(2-methyl-4H-imidazo[4,5-b]pyridin-4 yl]methyl]benzamide] | 
10 | 139 | COc1cc(Cn2cccc3ncnc2-3)ccc1C(=O)N(C1CCCC1)C1CC(C)CC(C)C1 (stereo not shown) [Example 4, N-cyclopentyl-N-(3,5-dimethylcyclohexyl)-4-[(4H-imidazo[4,5-b]pyridin-4-yl)methyl]-2-methoxybenzamide] | IC50 (human platelets): 58 nM
